In patent US20140158233A1, “AEROSOL DELIVERY TO A MICROFLUIDIC DEVICE” (PRESIDENT AND FELLOWS OF HARVARD COLLEGE, priority 2011, published 2014):

System: human alveolar epithelial cells (A549)
Assay: Aerosol delivery of a model agent to cells in a lung-on-a-chip (cell uptake, time-course fluorescence images)
Assay type: cell-based
Conditions: 50 micromolar fluorescein sodium in isotonic PBS, nebulized droplets, flow ~20 mL/hr into top channel; confluent A549 monolayer at air interface; images 0-10 min (FIGS. 14A-14D)
Description: In accordance with some embodiments described herein, an agent can be aerosolized and directed to a microfluidic channel for delivery of the agent to a cell. In some embodiments, the microfluidic channel can be present in a lung-on-a-chip device as described earlier. By way of example only, to evaluate efficacy of aerosol delivery to and/or deposition on a cell using one or more embodiments of the aerosol delivery device described herein, a monolayer of human alveolar epithelial cells (A549) was grown to confluence on the top side of a porous membrane of the lung-on-a-chip, for example, the one described in the International Patent Application WO 2010/009307, the content of which is incorporated herein by reference. In some embodiments, no cells were seeded on the bottom side of the membrane. […] In some embodiments, at least the top channel inlet port 1310 of the lung-on-a-chip 1300 can be modified to include an inertial impactor as described herein. […] The microchannel 142 (in fluid communication with the chamber 150) and the porous membrane 160 can be directly or indirectly connected to the top channel 1320 and the porous membrane 1340 of the lung-on-a-chip 1300. […]

cell uptake of aerosolized fluorescein after deposition on the cells: taken up by the cells
SMILES: O=C1OC2(c3ccc(O)cc3Oc3cc(O)ccc32)c2ccccc21 [fluorescein, fluorescein sodium]
